The text below walks through data of US12102659B2, “Methods for the prevention or treatment of heart failure” (Cornell University, priority 2009, dated 2024).

Square brackets hold non-standard residues; d marks the D form. Ends that are not written are not given here.

The subject of assay [1] is C57BL6 mice. Put plainly: Quantitative pathology of ventricular fibrosis (Masson Trichrome) after 4 weeks of Ang II. To be noted: SS-31 3 mg/kg/d with Ang II, 4 weeks. In kind it is in vivo, mouse. The method, then:
(§1) Mouse experiments, drug delivery, echocardiography and blood pressure measurement. All animal experiments were approved by the University of Washington Institutional Animal Care and Use Committee. C57BL6 mice were housed in a barrier specific pathogen-free facility. Six to ten mice were included in each experimental group (Saline, Ang II, Ang II+SS-31, WT, Gαq, Gαq+SS-31). A pressor dose of Ang II (1.1 mg/kg/d) was continuously administered for 4 weeks using subcutaneous Alzet 1004 osmotic minipumps, with or without addition of SS-31 (3 mg/kg/d). Echocardiography was performed at baseline and after 4 weeks of pump implantation using a Siemens Acuson CV-70 equipped with a 13 MHz probe. Under 0.5% isoflurane to reduce agitation, standard M-mode, conventional and Tissue Doppler images were taken, and functional calculations were performed according to American Society of Echocardiography guidelines. MP1 was calculated as the ratio of the sum of isovolemic contraction and relaxation time to LV ejection time. An increase in MPI is an indication that a greater fraction of systole is spent to cope with the pressure changes during the isovolemic phases. […]
Quantitative Pathology. […] Quantitative analysis of fibrosis was performed by measuring the percentage of blue-staining fibrotic tissue relative to the total cross-sectional area of the ventricles.

Assay [2] relates to cleaved caspase-3, phospho-p38 MAP kinase, p38. Put plainly: Western immunoblots of cardiac protein extracts after 4 weeks of Ang II. In kind it is in vivo, mouse. How it is done: (§2) Mouse experiments, drug delivery, echocardiography and blood pressure measurement. All animal experiments were approved by the University of Washington Institutional Animal Care and Use Committee. C57BL6 mice were housed in a barrier specific pathogen-free facility. Six to ten mice were included in each experimental group (Saline, Ang II, Ang II+SS-31, WT, Gαq, Gαq+SS-31). A pressor dose of Ang II (1.1 mg/kg/d) was continuously administered for 4 weeks using subcutaneous Alzet 1004 osmotic minipumps, with or without addition of SS-31 (3 mg/kg/d). Echocardiography was performed at baseline and after 4 weeks of pump implantation using a Siemens Acuson CV-70 equipped with a 13 MHz probe. Under 0.5% isoflurane to reduce agitation, standard M-mode, conventional and Tissue Doppler images were taken, and functional calculations were performed according to American Society of Echocardiography guidelines. MP1 was calculated as the ratio of the sum of isovolemic contraction and relaxation time to LV ejection time. An increase in MPI is an indication that a greater fraction of systole is spent to cope with the pressure changes during the isovolemic phases. As a reference for SS-31 peptide effect in Ang II treated mice, a genetic mouse model of Rosa-26 inducible-mCAT was included, in which mitochondrial catalase was overexpressed two weeks before Ang II treatment.
Western Immunoblots. Cardiac protein extracts were prepared by homogenization in lysis buffer containing protease and phosphatase inhibitors on ice (1.5 mM KCl, 50 mM Tris HCl, 0.125% Sodium deoxycholate, 0.375% Triton X 100, 0.15% NP40, 3 mM EDTA). The samples were sonicated and centrifuged at 10,000 g for 15 min in 4° C. The supernatant was collected and the concentration was determined using a BCA assay (Pierce Thermo Scientific, Rockford, IL). Total protein (25 μg) was separated on NuPAGE 4-12% Bis-Tris gel (Invitrogen) and transferred to 0.45 μm PVDF membrane (Millipore), and then blocked in 5% non-fat dry milk in Tris-buffer solution with 0.1% Tween-20 for 1 hour. Primary antibodies were incubated overnight, and secondary antibodies were incubated for 1 hour. The primary antibodies included: rabbit monoclonal anti-cleaved caspase-3 (Cell Signaling), mouse monoclonal anti-GAPDH (Millipore), rabbit polyclonal phospho-p38 MAP kinase (Cell Signaling), and mouse monoclonal anti-p38 (Santa Cruz Biotechnology). The enhanced chemiluminescence method (Thermo Scientific) was used for detection. Image Quant ver.2.0 was used to quantified the relative band density as a ratio to GAPDH (internal control). All samples were normalized to the same cardiac protein sample.

In assay [3] the test system is C57BL6 mice. Put plainly: Ang II-induced cardiomyopathy: echocardiography and heart weight after 4 weeks. The assay is classed as in vivo, mouse. How it is done: as §2
Assay [4] has as its system mitochondrial protein carbonyl groups. The experiment in a line: Cardiac mitochondrial protein carbonyl ELISA after 4 weeks of Ang II. In kind it is in vivo, mouse. To be noted: 4 weeks Ang II (vs. saline) or Ang II + SS-31 (vs. Ang II). The method, then:
as §2, with “treatment. […]” for “treatment.”

The test system of assay [5] is C57BL6 mice. The experiment in a line: Blood pressure by intravascular telemetry after pressor dose of Ang II. The assay is classed as in vivo, mouse. To be noted: SS-31 3 mg/kg/d simultaneously with Ang II 1.1 mg/kg/d. The method, then:
as §2
Blood pressure was measured in a separate group of mice by telemetry using an intravascular catheter PA-C10 (DSI, MN), in which measurement was performed every three hours starting from 2 days before pump placement until 2 days after Ang pump placement.

The next assay has as its target mu-opioid receptor (Homo sapiens, UniProt P35372). The experiment in a line: mu-opioid receptor agonist activity (stated, no method). In kind it is biochemical. The following applies: stated in the description, no test described.
The next assay has as its system NADPH oxidase. Put plainly: NADPH oxidase activity in ventricular protein extract after 4 weeks of Ang II. The following applies: 4 weeks Ang II (vs. saline) or Ang II + SS-31 (vs. Ang II). The assay is classed as in vivo, mouse. How it is done: as §1, with “time.” for “time. An increase in MPI is an indication that a greater fraction of systole is spent to cope with the pressure changes during the isovolemic phases.”
NADPH Oxidase activity. […] In brief, […] of ventricular protein extract was incubated with dihydroethidium (DHE, 10 μM), sperm DNA (1.25 μg/ml), and NADPH (50 μM) in PBS/DTPA (containing 100 μM DTPA), The assay was incubated at 37° C. in the dark for 30 min and the fluorescence was detected using excitation/emission of 490/580 nm.

The test system of another assay is neonatal cardiomyocytes. The experiment in a line: Mitosox flow cytometry of mitochondrial ROS in neonatal cardiomyocytes stimulated with Ang II. The assay is classed as cell-based, mouse. To be noted: SS-31 1 nM or NAC 0.5 mM together with Ang II 1 μM for 3 hours. How it is done: Neonatal mouse cardiomyocyte culture and flow cytometry. Ventricles from mouse neonates younger than 72 hours were dissected, minced, and enzymatically digested with Blendzyme 4 (45 μg/ml, Roche). After enzymatic digestion, cardiomyocytes were enriched using differential pre-plating for 2 hours, then seeded on fibronectin-coated culture dishes for 24 hours in DMEM (Gibco), with 20% Fetal Bovine Serum (Sigma) and 25 μM Arabinosylcytosine (Sigma). Cardiomyocytes were stimulated with Angiotensin II (1 μM) for 3 hours in serum-free DMEM containing 0.5% insulin transferrin-selenium (Sigma), 2 mM glutamine, and 1 mg/ml of BSA. Cardiomyocytes were simultaneously treated with either of the following: SS-31 (1 nM), N-acetyl cysteine (NAC: 0.5 mM), or PBS control. To measure mitochondrial superoxide concentration, Mitosox (5 μM) was incubated for 30 min at 37° C. to load cardiomyocytes, followed by 2 washes, with Hanks Balanced Salt Solution. Samples were analyzed using excitation/emission of 488/625 nm by flow cytometry. Flow data was analyzed using FCS Express (De Novo Software, Los Angeles, CA), and presented as histogram distributions of Mitosox fluorescence intensity.

For the next assay, the system named is Gαq overexpressing mice. Put plainly: Gαq overexpression-induced heart failure: echocardiography, organ weights, fibrosis, qPCR, protein carbonyls. The assay is classed as in vivo, mouse. How it is done: as §2
Quantitative Pathology. Ventricular tissues were cut into transverse slices, and subsequently embedded with paraffin, sectioned, and subjected to Masson Trichrome staining. Quantitative analysis of fibrosis was performed by measuring the percentage of blue-staining fibrotic tissue relative to the total cross-sectional area of the ventricles.
Measurement of mitochondrial protein carbonyl groups. For mitochondrial protein extraction, ventricular tissues were homogenized in mitochondrial isolation buffer (1 mM EGTA, 10 mM HEPES, 250 mM sucrose, 10 mM Tris-HCl, pH 7.4). The lysates were centrifuged for 7 min at 800 g in 4° C. The supernatants were then centrifuged for 30 min at 4000 g in 4° C. The crude mitochondria pellets were resuspended in small volume of mitochondrial isolation buffer, sonicated on ice to disrupt the membrane, and treated with 1% streptomycin sulfate to precipitate mitochondrial nucleic acids. The OxiSelect™ Protein Carbonyl ELISA Kit (Cell Biolabs) was used to analyze 1 μg of protein sample per assay. The ELISA was performed according to the instruction manual, with slight modification. Briefly, protein samples were reacted with dinitrophenylhydrazine (DNPH) and probed with anti-DNPH antibody, followed by HRP conjugated secondary antibody. The anti-DNPH antibody and HRP conjugated secondary antibody concentrations were 1:2500 and 1:4000, respectively.
(§3) Quantitative PCR. Gene expression was quantified by quantitative real time PCR using an Applied Biosystems 7900 themocycler with Taqman Gene Expression Assays on Demand, which included: PGC1-α (Mm00731216), TFAM (Mm00447485), NRF-1 (Mm00447996), NRF-2 (Mm00487471), Collagen 1a2 (Mm00483937), and ANP (Mm01255747). Expression assays were normalized to 18S RNA.

Assay [6] deals with ANP, Collagen 1a2, PGC1-α, TFAM, NRF-1, NRF-2. Put plainly: Quantitative PCR of cardiac gene expression after 4 weeks of Ang II. In kind it is in vivo, mouse. How it is done:
as §2, §3

[7] abbreviates: 4 weeks Ang II (vs. saline) or Ang II + SS-31 (vs. Ang II).
Where [8] appears, read: SS-31 3 mg/kg/d with Ang II, 4 weeks.
The mark [9] stands for this setting: 4 weeks Ang II 1.1 mg/kg/d with or without SS-31 3 mg/kg/d.
Where [10] appears, read: 4 weeks of Ang II, in the presence or absence of SS-31.
[11] abbreviates: Ang+SS-31 (3 mg/kg/d) vs. Ang, 4 weeks.
[12] abbreviates: Gαq mice, SS-31 3 mg/kg/d for 4 weeks.

Sequence of mu-opioid receptor (P35372 whole entry, species assumed): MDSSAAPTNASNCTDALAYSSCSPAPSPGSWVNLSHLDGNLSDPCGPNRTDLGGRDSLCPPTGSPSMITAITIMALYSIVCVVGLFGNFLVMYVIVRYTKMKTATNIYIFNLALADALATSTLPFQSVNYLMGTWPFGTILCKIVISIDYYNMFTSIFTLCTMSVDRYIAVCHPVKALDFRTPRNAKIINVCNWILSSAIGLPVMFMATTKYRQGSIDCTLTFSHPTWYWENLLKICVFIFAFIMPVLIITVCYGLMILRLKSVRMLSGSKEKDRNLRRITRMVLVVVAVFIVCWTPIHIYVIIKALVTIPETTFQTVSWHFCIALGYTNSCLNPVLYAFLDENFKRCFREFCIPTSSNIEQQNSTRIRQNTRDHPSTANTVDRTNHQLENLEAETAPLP

Regarding D-Arg-2′,6′-Dmt-Lys-Phe-NH2 [SS-31], the “effect on Ang II-induced ventricular fibrosis” value in the assay on C57BL6 mice [1] is reported as “fully attenuated”. Besides, the “phosphorylation of p38 MAPK” value in assay [2] (setting [7]) was “significantly and nearly fully attenuated”. For the same compound, in [2] (setting [8]), the “effect on activation of caspase-3 caused by Ang II” value is reported as “completely prevented”. In the assay with C57BL6 mice [3] (setting [9]), this compound came in with an Ea/Aa of 1.17±0.11 and an LVMI of 4.21 ± 0.17 mg/g. The “heart weight (normalized to tibia length)” value in the assay with C57BL6 mice [3] (4 weeks Ang II with or without SS-31, saline 5.3±0.18) is listed as 6.05±0.135 mg/mm. For the same compound, in the assay on C57BL6 mice [3] (setting [10]), the “change in LV end diastolic diameter (LVEDD)” value is “not significantly changed” and the “change in fractional shortening (FS, systolic function)” value is recorded as “not significantly changed”. Besides, in the assay on C57BL6 mice [3] (setting [11]), the “better preservation of Ea/Aa” value came to 38% and the “reduction of LVMI” value was 33%. Also, in assay [4], the “ventricular mitochondrial protein carbonyl content” value is “significantly reduced”. Further, the “effect on blood pressure” value in the assay on C57BL6 mice [5] is given as “did not show any effect”. Also, the “mu-opioid receptor agonist activity” value on mu-opioid receptor is given as “does not have mu-opioid receptor agonist activity”. In addition, in the assay on NADPH oxidase, the “cardiac NADPH oxidase activity” value is “not changed”. In addition, the “effect on Ang II-induced Mitosox fluorescence / mitochondrial ROS” value in the assay with neonatal cardiomyocytes was “reduced Ang II-induced mitosox fluorescence to the level similar to that of saline treated cardiomyocytes”. Further, the “cardiac enlargement (normalized heart weight)” value with Gαq overexpressing mice (Gαq mice at 16 weeks of age, SS-31 3 mg/kg/d for 4 weeks) is on record as “substantially reduced”. Also, the “increase in lung weights (lung congestion)” value in the assay with Gαq overexpressing mice (Gαq mice at 16 weeks of age, SS-31 3 mg/kg/d for 4 weeks, borderline significance p=0.09) is given as “slightly attenuated”. Moreover, the “cardiac expression of Coll1a2 gene” value in the assay with Gαq overexpressing mice (Gαq mice, 4 weeks of SS-31 treatment) is given as “not significantly altered”. Further, in the assay with Gαq overexpressing mice (setting [12]), the “Gαq overexpression-induced heart failure (phenotype overall)” value is listed as “partially rescued”, the “cardiac mitochondrial protein carbonyls” value is reported as “significant reduction” and the ventricular fibrosis entry is given as “not changed”. Further, the “myocardial performance (MPI)” value in the assay with Gαq overexpressing mice (Gαq mice, SS-31 3 mg/kg/d from 12 to 16 weeks of age) is recorded as “improved”. In the assay with Gαq overexpressing mice (Gαq mice, SS-31 3 mg/kg/d from 12 to 16 weeks of age, vs. untreated Gαq), the “systolic function (FS)” value was “significantly ameliorated”. For the same compound, the “Ea/Aa (diastolic function)” value in the assay with Gαq overexpressing mice (Gαq mice, SS-31 3 mg/kg/d from 12 to 16 weeks of age, borderline significance p=0.06) is given as “better preserved”. For the same compound, the LV chamber enlargement result with Gαq overexpressing mice (Gαq mice, SS-31 3 mg/kg/d from 12 to 16 weeks of age, p=0.08) was “slightly reduced”. Besides, the “expression of PGC-1α and downstream target genes TFAM, NRF-1 and NRF-2” value in assay [6] (setting [7]) is listed as “fully prevent the upregulation”. In [6] (setting [8]), the “effect on Ang II-induced ANP gene expression” value is given as “almost completely protected” and the “effect on Ang II-induced Coll1a2 gene expression” value was “almost fully attenuated”.

Turning to F[dR]FK-NH2 [SS-20], the “mu-opioid receptor agonist activity” value at mu-opioid receptor is “does not have mu-opioid receptor agonist activity”.

With `CC(=O)N[C@@H](CS)C(=O)O` [N-acetyl cysteine], the “effect on Ang II-induced Mitosox fluorescence / mitochondrial ROS” value in the assay on neonatal cardiomyocytes is given as “did not show any effect”.
